Earlier results in US20190076442A1, “PRESERVATIVE FREE PHARMACEUTICAL COMPOSITION FOR OPHTHALMIC ADMINISTRATION CONTAINING BIMATOPROST AND TIMOLOL” (PHARMATHEN S.A., priority 2016, published 2019).
Where a name gives a salt, the structure may show the parent alone.

In the case of `CCNC(=O)CCC/C=C\C[C@@H]1[C@@H](/C=C/[C@@H](O)CCc2ccccc2)[C@H](O)C[C@@H]1O` [Bimatoprost], the “Solubility in ethanol (ethyl alcohol)” value is given as “very soluble” and the Solubility in water is given as “slightly soluble”.
In the case of `CC(C)(C)NC[C@H](O)COc1nsnc1N1CCOCC1` [Timolol maleate], the Solubility in chloroform (chloroform) is listed as “sparingly soluble”, the Solubility in cyclohexane (cyclohexane) is listed as “insoluble” and the “Solubility in ethanol (ethyl alcohol)” value is listed as “soluble”. For the same molecule, the Solubility in ether (ether) was “insoluble”, the Solubility in methanol (methanol) was “soluble” and the “Solubility in propylene glycol” value (propylene glycol) was “sparingly soluble”. The Solubility in water was “soluble”.
